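Step 1: Grow cells in 96-well plates. Step 2: Expose to compound for 48 hours at 5 concentrations. Step 3: Interpolate endpoints linearly; if unreached, use highest concentration. At the GI50, growth is halved.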 Activity calls are given as the source filed them. Cut-off read from the data, not from the text of the source: active = GI50 up to about 1.1 µM and inactive = higher.
How the values were obtained:
Assay in all cases: NCI tumour cell line growth inhibition, 48 h
786-0 = system: 786-0
A498 = system: A498
A549 = system: A549
CAKI-1 = system: CAKI-1
COLO 205 = system: COLO 205
DU-145 = system: DU-145
HCT-116 = system: HCT-116
HCT-15 = system: HCT-15
HOP-62 = system: HOP-62
HOP-92 = system: HOP-92
HT-29 = system: HT-29
K562 = system: K562
KM12 = system: KM12
M14 = system: M14
MCF7 = system: MCF7
MDA-MB-231 = system: MDA-MB-231
MDA-MB-435 = system: MDA-MB-435
MDA-N = system: MDA-N
MOLT-4 = system: MOLT-4
Malme-3M = system: Malme-3M
NCI-H23 = system: NCI-H23
NCI-H460 = system: NCI-H460
NCI-H522 = system: NCI-H522
NCI/ADR-RES = system: NCI/ADR-RES
OVCAR-3 = system: OVCAR-3
OVCAR-4 = system: OVCAR-4
OVCAR-5 = system: OVCAR-5
OVCAR-8 = system: OVCAR-8
PC-3 = system: PC-3
RPMI-8226 = system: RPMI-8226
RXF 393 = system: RXF 393
SF-268 = system: SF-268
SF-295 = system: SF-295
SF-539 = system: SF-539
SK-MEL-28 = system: SK-MEL-28
SK-MEL-2 = system: SK-MEL-2
SK-MEL-5 = system: SK-MEL-5
SK-OV-3 = system: SK-OV-3
SN12C = system: SN12C
SNB-19 = system: SNB-19
SW-620 = system: SW-620
T47D = system: T47D
U-251 = system: U-251
UACC-62 = system: UACC-62
UO-31 = system: UO-31
ACHN = system: ACHN
CCRF-CEM = system: CCRF-CEM
EKVX = system: EKVX
HL-60 = system: HL-60
Hs-578T = system: Hs-578T
IGROV-1 = system: IGROV-1
LOX IMVI = system: LOX IMVI
NCI-H226 = system: NCI-H226
SNB-75 = system: SNB-75
SR = system: SR
TK-10 = system: TK-10
UACC-257 = system: UACC-257
HCC 2998 = system: HCC 2998

For `O=C(O)[C@H](Cc1ccccc1)NCCN1CCC[C@H]1C(=O)O`, the GI50 (786-0) was > 100 µM (inactive), the GI50 (A498) was 42.6 µM (inactive) and the GI50 (A549) was > 100 µM (inactive). For the same molecule, the GI50 (CAKI-1) was > 100 µM (inactive), the GI50 (COLO 205) was 37.6 µM (inactive) and the GI50 (DU-145) was > 100 µM (inactive). The GI50 (HCT-116) was > 100 µM (inactive), the GI50 (HCT-15) was 22.2 µM and the GI50 (HOP-62) was > 100 µM (inactive). The GI50 (HOP-92) was 1.91 µM (inactive), the GI50 (HT-29) was 26.2 µM (inactive) and the GI50 (K562) was 1.53 µM (inactive). The GI50 (KM12) was > 100 µM (inactive), the GI50 (M14) was > 100 µM (inactive) and the GI50 (MCF7) was > 100 µM (inactive). The GI50 (MDA-MB-231) was > 100 µM (inactive), the GI50 (MDA-MB-435) was > 100 µM (inactive) and the GI50 (MDA-N) was > 100 µM (inactive). For the same molecule, the GI50 (MOLT-4) was 99.8 µM (inactive), the GI50 (Malme-3M) was 49.8 µM (inactive) and the GI50 (NCI-H23) was > 100 µM (inactive). For the same molecule, the GI50 (NCI-H460) was 42.1 µM (inactive), the GI50 (NCI-H522) was > 100 µM (inactive) and the GI50 (NCI/ADR-RES) was > 100 µM (inactive). For the same molecule, the GI50 (OVCAR-3) was > 100 µM (inactive), the GI50 (OVCAR-4) was 3.74 µM (inactive) and the GI50 (OVCAR-5) was > 100 µM (inactive). For the same molecule, the GI50 (OVCAR-8) was > 100 µM (inactive), the GI50 (PC-3) was > 100 µM (inactive) and the GI50 (RPMI-8226) was > 100 µM (inactive). The GI50 (RXF 393) was > 100 µM (inactive), the GI50 (SF-268) was > 100 µM (inactive) and the GI50 (SF-295) was > 100 µM (inactive). The GI50 (SF-539) was > 100 µM (inactive), the GI50 (SK-MEL-28) was > 100 µM (inactive) and the GI50 (SK-MEL-2) was > 100 µM (inactive). For the same molecule, the GI50 (SK-MEL-5) was > 100 µM (inactive), the GI50 (SK-OV-3) was > 100 µM (inactive) and the GI50 (SN12C) was > 100 µM (inactive). For the same molecule, the GI50 (SNB-19) was > 100 µM (inactive), the GI50 (SW-620) was 80.4 µM (inactive) and the GI50 (T47D) was > 100 µM (inactive). For the same molecule, the GI50 (U-251) was > 100 µM (inactive), the GI50 (UACC-62) was 70.8 µM (inactive) and the GI50 (UO-31) was 32.4 µM (inactive).

`COc1ccc(C[N+]23C(CC[C@H]2c2ccccc2)CC[C@H]3c2ccccc2)cc1` (stereo not given in full) was tested, and the GI50 (786-0) was 39.4 µM (inactive), the GI50 (A498) was 39.7 µM (inactive) and the GI50 (A549) was 31.3 µM (inactive). The GI50 (ACHN) was 67.6 µM (inactive), the GI50 (CAKI-1) was 75.5 µM (inactive) and the GI50 (CCRF-CEM) was 27.5 µM (inactive). For the same molecule, the GI50 (COLO 205) was 5.26 µM (inactive), the GI50 (DU-145) was 23.8 µM (inactive) and the GI50 (EKVX) was 15.4 µM (inactive). The GI50 (HCT-116) was 24.5 µM (inactive), the GI50 (HL-60) was 4.06 µM (inactive) and the GI50 (HOP-62) was 21 µM (inactive). The GI50 (HOP-92) was 9.66 µM (inactive), the GI50 (HT-29) was 12.2 µM (inactive) and the GI50 (Hs-578T) was 27.7 µM (inactive). For the same molecule, the GI50 (IGROV-1) was 10.9 µM (inactive), the GI50 (K562) was 6.46 µM (inactive) and the GI50 (KM12) was 10.4 µM (inactive). For the same molecule, the GI50 (LOX IMVI) was 16.6 µM (inactive), the GI50 (M14) was 12.9 µM (inactive) and the GI50 (MCF7) was 14.7 µM (inactive). The GI50 (MDA-MB-231) was 28.2 µM (inactive), the GI50 (MDA-MB-435) was 9.84 µM (inactive) and the GI50 (MDA-N) was 13.2 µM (inactive). The GI50 (MOLT-4) was 21.6 µM (inactive), the GI50 (Malme-3M) was 11.4 µM (inactive) and the GI50 (NCI-H226) was 14.1 µM (inactive). For the same molecule, the GI50 (NCI-H522) was 8.73 µM (inactive), the GI50 (OVCAR-3) was 6.04 µM (inactive) and the GI50 (OVCAR-4) was 13.1 µM (inactive). For the same molecule, the GI50 (OVCAR-5) was 32.3 µM (inactive), the GI50 (OVCAR-8) was 22.9 µM (inactive) and the GI50 (PC-3) was 20 µM (inactive). The GI50 (RPMI-8226) was 2.8 µM (inactive), the GI50 (RXF 393) was 13.8 µM (inactive) and the GI50 (SF-268) was 30.3 µM (inactive). For the same molecule, the GI50 (SF-295) was 26.1 µM (inactive), the GI50 (SK-MEL-28) was 20.3 µM (inactive) and the GI50 (SK-MEL-2) was 18.5 µM (inactive). The GI50 (SK-MEL-5) was 4.43 µM (inactive), the GI50 (SK-OV-3) was 29.5 µM (inactive) and the GI50 (SN12C) was 36.9 µM (inactive). The GI50 (SNB-19) was 27.2 µM (inactive), the GI50 (SNB-75) was 18.3 µM (inactive) and the GI50 (SR) was 15.7 µM (inactive). For the same molecule, the GI50 (SW-620) was 28.2 µM (inactive), the GI50 (T47D) was 4.56 µM (inactive) and the GI50 (TK-10) was 44.9 µM (inactive). For the same molecule, the GI50 (U-251) was 18.6 µM (inactive), the GI50 (UACC-257) was 5.22 µM (inactive) and the GI50 (UO-31) was 31.9 µM (inactive).

For `Nc1ncc(Cc2nn3c(COc4ccc(Cl)cc4)nnc3s2)s1`, the GI50 (786-0) was > 100 µM (inactive), the GI50 (A549) was > 100 µM (inactive) and the GI50 (ACHN) was 0.0543 µM (active). The GI50 (CAKI-1) was > 100 µM (inactive), the GI50 (CCRF-CEM) was > 100 µM (inactive) and the GI50 (COLO 205) was > 100 µM (inactive). For the same molecule, the GI50 (DU-145) was > 100 µM (inactive), the GI50 (EKVX) was > 100 µM (inactive) and the GI50 (HCC 2998) was > 100 µM (inactive). For the same molecule, the GI50 (HCT-116) was > 100 µM (inactive), the GI50 (HCT-15) was 0.748 µM and the GI50 (HL-60) was > 100 µM (inactive). The GI50 (HOP-62) was > 100 µM (inactive), the GI50 (HOP-92) was > 100 µM (inactive) and the GI50 (HT-29) was > 100 µM (inactive). For the same molecule, the GI50 (Hs-578T) was > 100 µM (inactive), the GI50 (IGROV-1) was > 100 µM (inactive) and the GI50 (K562) was > 100 µM (inactive). The GI50 (KM12) was 7.45 µM (inactive), the GI50 (M14) was > 100 µM (inactive) and the GI50 (MCF7) was > 100 µM (inactive). The GI50 (MDA-MB-231) was > 100 µM (inactive), the GI50 (MDA-MB-435) was > 100 µM (inactive) and the GI50 (MOLT-4) was > 100 µM (inactive). For the same molecule, the GI50 (Malme-3M) was 3.61 µM (inactive), the GI50 (NCI-H226) was > 100 µM (inactive) and the GI50 (NCI-H23) was > 100 µM (inactive). The GI50 (NCI-H460) was > 100 µM (inactive), the GI50 (NCI-H522) was > 100 µM (inactive) and the GI50 (NCI/ADR-RES) was > 100 µM (inactive). The GI50 (OVCAR-3) was > 100 µM (inactive), the GI50 (OVCAR-4) was > 100 µM (inactive) and the GI50 (OVCAR-5) was > 100 µM (inactive). The GI50 (OVCAR-8) was > 100 µM (inactive), the GI50 (PC-3) was > 100 µM (inactive) and the GI50 (RPMI-8226) was > 100 µM (inactive). The GI50 (RXF 393) was > 100 µM (inactive), the GI50 (SF-268) was > 100 µM (inactive) and the GI50 (SF-295) was > 100 µM (inactive). For the same molecule, the GI50 (SF-539) was > 100 µM (inactive), the GI50 (SK-MEL-28) was > 100 µM (inactive) and the GI50 (SK-MEL-2) was > 100 µM (inactive). For the same molecule, the GI50 (SK-MEL-5) was > 100 µM (inactive), the GI50 (SK-OV-3) was > 100 µM (inactive) and the GI50 (SN12C) was > 100 µM (inactive). For the same molecule, the GI50 (SNB-19) was > 100 µM (inactive), the GI50 (SNB-75) was > 100 µM (inactive) and the GI50 (SR) was 49.2 µM (inactive). For the same molecule, the GI50 (SW-620) was > 100 µM (inactive), the GI50 (T47D) was > 100 µM (inactive) and the GI50 (TK-10) was 45.2 µM (inactive). For the same molecule, the GI50 (UACC-257) was > 100 µM (inactive), the GI50 (UACC-62) was > 100 µM (inactive) and the GI50 (UO-31) was > 100 µM (inactive).

— ChEMBL document CHEMBL1201862, “PubChem BioAssay data set” (2004)
